This is an account of results in patent publication US12503439B2, “Heteroaryl compounds for the treatment of pain” (VERTEX PHARMACEUTICALS INCORPORATED, priority 2022, dated 2025).

A value given as a limit tells only on which side of the number the result lay.

Sequence of truncated form of human NaV 1.8 with full channel activity (expressed in HEK cells) (Q9Y5Y9 126-1722 limits assumed): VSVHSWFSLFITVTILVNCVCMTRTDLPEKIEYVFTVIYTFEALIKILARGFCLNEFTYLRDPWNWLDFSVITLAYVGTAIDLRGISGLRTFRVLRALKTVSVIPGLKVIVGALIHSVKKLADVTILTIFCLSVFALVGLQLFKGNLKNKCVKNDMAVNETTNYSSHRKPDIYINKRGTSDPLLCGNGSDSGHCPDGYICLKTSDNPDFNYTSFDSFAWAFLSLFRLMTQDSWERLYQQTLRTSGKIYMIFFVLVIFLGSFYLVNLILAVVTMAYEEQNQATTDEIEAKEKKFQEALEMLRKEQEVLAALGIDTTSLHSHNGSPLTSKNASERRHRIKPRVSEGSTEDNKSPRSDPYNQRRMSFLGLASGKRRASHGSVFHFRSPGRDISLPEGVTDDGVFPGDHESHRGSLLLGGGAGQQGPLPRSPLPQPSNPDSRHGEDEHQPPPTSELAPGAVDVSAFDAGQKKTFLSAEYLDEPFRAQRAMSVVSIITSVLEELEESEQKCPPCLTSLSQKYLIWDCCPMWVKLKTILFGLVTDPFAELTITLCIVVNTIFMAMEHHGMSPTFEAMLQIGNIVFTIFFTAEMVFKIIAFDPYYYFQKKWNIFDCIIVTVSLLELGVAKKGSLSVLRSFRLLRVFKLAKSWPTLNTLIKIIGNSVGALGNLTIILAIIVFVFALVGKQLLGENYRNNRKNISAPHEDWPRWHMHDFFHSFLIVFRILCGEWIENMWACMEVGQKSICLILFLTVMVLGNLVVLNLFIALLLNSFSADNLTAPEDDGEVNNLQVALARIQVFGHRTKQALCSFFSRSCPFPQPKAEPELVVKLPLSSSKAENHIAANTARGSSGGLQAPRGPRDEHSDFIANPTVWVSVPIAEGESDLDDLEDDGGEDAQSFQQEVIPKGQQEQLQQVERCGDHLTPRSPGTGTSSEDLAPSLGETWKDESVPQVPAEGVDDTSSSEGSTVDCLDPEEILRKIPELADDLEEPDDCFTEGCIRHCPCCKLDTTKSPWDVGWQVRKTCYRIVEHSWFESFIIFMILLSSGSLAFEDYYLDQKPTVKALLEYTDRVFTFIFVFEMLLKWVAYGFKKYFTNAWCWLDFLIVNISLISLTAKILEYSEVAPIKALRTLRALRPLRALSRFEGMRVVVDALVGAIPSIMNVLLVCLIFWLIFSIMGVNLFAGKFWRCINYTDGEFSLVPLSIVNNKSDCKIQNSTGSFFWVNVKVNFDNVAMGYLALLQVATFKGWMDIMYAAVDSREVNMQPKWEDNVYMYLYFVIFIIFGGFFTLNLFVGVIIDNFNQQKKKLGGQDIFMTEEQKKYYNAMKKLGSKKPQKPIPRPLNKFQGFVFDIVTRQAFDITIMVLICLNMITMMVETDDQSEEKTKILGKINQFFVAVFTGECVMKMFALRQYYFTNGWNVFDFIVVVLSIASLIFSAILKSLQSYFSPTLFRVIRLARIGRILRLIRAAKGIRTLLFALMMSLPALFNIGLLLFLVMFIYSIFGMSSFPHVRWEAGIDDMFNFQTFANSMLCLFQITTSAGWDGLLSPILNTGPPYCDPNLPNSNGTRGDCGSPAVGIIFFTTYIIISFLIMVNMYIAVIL

The target of the test is truncated form of human NaV 1.8 with full channel activity (expressed in HEK cells) (Homo sapiens, UniProt Q9Y5Y9). As to the kind of experiment: E-VIPR assay detecting and measuring NaV inhibition properties (electrical stimulation, membrane potential FRET dyes). Type of test: cell-based. Conditions: HEK cells expressing truncated human NaV 1.8, KIR2.1 BacMam; 11-point dose response; 30 min compound incubation; stimulation 10 Hz for 10 s; read-out: measured IC50 value in the E-VIPR Assay. The text has this:
E-VIPR Assay Detecting and Measuring NaV Inhibition Properties
Sodium ion channels are voltage-dependent proteins that can be activated by inducing membrane voltage changes by applying electric fields. […] The instrument comprises a microtiter plate handler, an optical system for exciting the coumarin dye while simultaneously recording the coumarin and oxonol emissions, a waveform generator, a current- or voltage-controlled amplifier, and parallel electrode pairs that are inserted into assay plate wells. Under integrated computer control, this instrument passes user-programmed electrical stimulus protocols to cells within the wells of the microtiter plate.
16-20 hours prior to running the assay on E-VIPR, HEK cells expressing a truncated form of human NaV 1.8 with full channel activity were seeded into microtiter 384-well plates, pre-coated with matrigel, at a density of 25,000 cells per well. 2.5-5% KIR2.1 BacMam virus was added to the final cell suspension before seeding into cell plates. […] Cells were expanded in 5-layer CellSTACK culture chambers or cell culture flasks with vented caps, with 90-95% humidity and 5% CO2.
Reagents and Stock Solutions:
The concentration used can be dependent on viral titer of each batch.
Human Serum (HS, Millipore #S1P1-01KL, or Sigma SLBR5469V and SLBR5470V as a 50%/50% mixture, for 25% assay final concentration)
Hexyl Dye Solution (2× Concentration):
Bath 1 Buffer containing 0.5% β-cyclodextrin (made fresh prior to each use, Sigma #C4767), 8 μM CC2-DMPE and 2 μM DiSBAC6(3). The solution was made by adding 10% Pluronic F127 stock equal to combined volumes of CC2-DMPE and DiSBAC6(3). The order of preparation was first mix Pluronic and CC2-DMPE, then add DiSBAC6(3), then while vortexing add Bath 1/β-Cyclodextrin.
Assay Protocol (7 Key Steps):
The compound plate was backfilled with 45 μL per well of Compound Loading Buffer resulting in a 240-fold dilution of compound following a 1:1 transfer of compound into the cell plate (see Step 6). […] This assay dilution protocol was adjusted to enable a higher dose range to be tested in the presence of HS or if the final assay volume was altered. • 2) Hexyl Dye Solution was prepared. • 3) Cell plates were prepared. On the day of the assay, the media was aspirated, and the cells were washed three times with 80 μL of Bath-1 buffer, maintaining 25 μL residual volume in each well. • 4) 25 μL per well of Hexyl Dye Solution was dispensed into the cell plates. The cells were incubated for 20 minutes at room temperature or ambient conditions in darkness. • 5) 45 μL per well of Compound Loading Buffer was dispensed into compound plates. • 6) The cell plates were washed three times with 80 μL per well of Bath-1 Buffer, leaving […] of residual volume. Then 25 μL per well from compound plate was transferred to each cell plate. The mixture was incubated for 30 minutes at room temperature/ambient conditions. • 7) The cell plate containing compound was read on E-VIPR using the current-controlled amplifier to deliver stimulation wave pulses using a symmetrical biphasic waveform. […] A pre-stimulus recording was performed for each well for 0.5 seconds to obtain the un-stimulated intensities baseline. The stimulatory waveform was followed by 0.5 seconds of post-stimulation recording to examine the relaxation to the resting state. All E-VIPR responses were measured at 200 Hz acquisition rate. Data Analysis:
The response as a function of time was reported as the ratios obtained using the following formula: […]
The data were normalized by calculating the initial (Ri) and final (Rf) ratios. These were the average ratio values during part or all of the pre-stimulation period and during sample points during the stimulation period. The fluorescence ratio (Rf/Ri) was then calculated and reported as a function of time.
Control responses were obtained by performing assays in the presence of the positive control, and in the absence of pharmacological agents (DMSO vehicle negative control).
By IC50 is commonly meant the concentration at which inhibition is half-maximal. In the case of `COc1cc(F)ccc1Oc1cc(C(C)(C)C)cc(C)c1-c1[nH]c2ccccc2c(=O)c1Cl` (single isomer, unassigned) [Compound 312, 2-[4-tert-butyl-2-(4-fluoro-2-methoxy-phenoxy)-6-methyl-phenyl]-3-chloro-1H-quinolin-4-one], the IC50 fell in the range of 500 to 2000 nM.
Consider `COc1cc(F)ccc1Oc1cc(C(C)(C)C)cc(C)c1-c1[nH]c2ccccc2c(=O)c1Br` (single isomer, unassigned) [Compound 320, 3-bromo-2-[4-tert-butyl-2-(4-fluoro-2-methoxy-phenoxy)-6-methyl-phenyl]-1H-quinolin-4-one], for which the IC50 was in the range of 500 to 2000 nM.
Consider `C=C(C)c1c(-c2c(C)cc(C(C)(C)C)cc2Oc2ccc(F)cc2OC)[nH]c2ccccc2c1=O` (single isomer, unassigned) [Compound 331, 2-[4-tert-butyl-2-(4-fluoro-2-methoxy-phenoxy)-6-methyl-phenyl]-3-isopropenyl-1H-quinolin-4-one], for which the IC50 fell in the range of 500 to 2000 nM.
The value for `COc1cc(F)ccc1Oc1cc(C(C)(C)C)cc(C)c1-c1[nH]c2ccccc2c(=O)c1C` (single isomer, unassigned) [Compound 334, 2-[4-tert-butyl-2-(4-fluoro-2-methoxy-phenoxy)-6-methyl-phenyl]-3-methyl-1H-quinolin-4-one] was 2000 to 5000 nM; that for `O=c1cc(-c2ccccc2C2CC2)[nH]c2ccccc12` [Compound 1, 2-(2-cyclopropylphenyl)-1H-quinolin-4-one] was not below 5000 nM; that for `O=c1cc(-c2ccccc2OCC2CC2)[nH]c2ccccc12` [Compound 2, 2-[2-(cyclopropylmethoxy)phenyl]-1H-quinolin-4-one] was not below 5000 nM.
In the case of `O=c1cc(-c2ccccc2OCc2ccccc2)[nH]c2ccccc12` [Compound 3, 2-(2-benzyloxyphenyl)-1H-quinolin-4-one], the IC50 lay in the range of 500 to 2000 nM.
On to `O=c1cc(-c2ccccc2OCc2cccc(F)c2)[nH]c2ccccc12` [Compound 4, 2-[2-[(3-fluorophenyl)methoxy]phenyl]-1H-quinolin-4-one], for which the IC50 lay within 500 to 2000 nM.
For the compound `O=c1cc(-c2ccccc2OCc2ccc(F)cc2)[nH]c2ccccc12` [Compound 6, 2-[2-[(4-fluorophenyl)methoxy]phenyl]-1H-quinolin-4-one], the IC50 fell in the range of 2000 to 5000 nM.
Turning to `COc1cc(F)ccc1Oc1cc(C(C)(C)C)cc(C)c1-c1nc(=O)c2ccccc2[nH]1` [Compound 28, 2-[4-tert-butyl-2-(4-fluoro-2-methoxy-phenoxy)-6-methyl-phenyl]-1H-quinazolin-4-one], the concentration for half-maximal inhibition (IC50) was 500 to 2000 nM.
Regarding `COc1cc(F)ccc1Oc1cc(C(C)(C)C)cc(C)c1-c1cc(=O)c2cccc(C)c2[nH]1` [Compound 32, 2-[4-tert-butyl-2-(4-fluoro-2-methoxy-phenoxy)-6-methyl-phenyl]-8-methyl-1H-quinolin-4-one], the IC50 was in the range of 500 to 2000 nM.
In the case of `COc1cc(F)ccc1Oc1cc(C(C)(C)C)cc(C)c1-c1cc(=O)n2ccccc2n1` [Compound 37, 2-[4-tert-butyl-2-(4-fluoro-2-methoxy-phenoxy)-6-methyl-phenyl]pyrido[1,2-a]pyrimidin-4-one] it was not below 5000 nM; in that of `COc1cc(F)ccc1Oc1cc(C(C)(C)C)cc(C)c1-c1nc2cccc(F)c2c(=O)[nH]1` [Compound 38, 2-[4-tert-butyl-2-(4-fluoro-2-methoxy-phenoxy)-6-methyl-phenyl]-5-fluoro-3H-quinazolin-4-one], 500 to 2000 nM; in that of `O=c1cc(-c2cc(Cl)c(C(F)(F)F)nc2N2CCCC(F)(F)CC2)[nH]c2c(F)cccc12` [Compound 95, 2-[5-chloro-2-(4,4-difluoroazepan-1-yl)-6-(trifluoromethyl)-3-pyridyl]-8-fluoro-1H-quinolin-4-one], 500 to 2000 nM.
In the case of `COC1CCC(c2cc(C(C)(C)C)ncc2-c2cc(=O)c3c(C(N)=O)nccc3[nH]2)CC1` (centres unmarked) [Compound 133, 2-[6-tert-butyl-4-(4-methoxycyclohexyl)-3-pyridyl]-4-oxo-1H-1,6-naphthyridine-5-carboxamide] it was 500 to 2000 nM.
In the case of `CC(C)(C)n1cc(-c2cc(=O)c3c(C(N)=O)nccc3[nH]2)c(C2CCC(F)(F)CC2)n1` [Compound 138, 2-[1-tert-butyl-3-(4,4-difluorocyclohexyl)pyrazol-4-yl]-4-oxo-1H-1,6-naphthyridine-5-carboxamide] it was 500 to 2000 nM; in that of `O=c1[nH]c(-c2nc(C(F)(F)F)ccc2N2CCCC(F)(F)CC2)nc2ccccc12` [Compound 153, 2-[3-(4,4-difluoroazepan-1-yl)-6-(trifluoromethyl)-2-pyridyl]-3H-quinazolin-4-one], not below 5000 nM; in that of `Cc1c(Oc2ncc(C(F)(F)F)c(C)c2-c2cc(=O)c3c(NC(C)(C)CO)nccc3[nH]2)ccc(F)c1F` [Compound 170, 2-[2-(3,4-difluoro-2-methyl-phenoxy)-4-methyl-5-(trifluoromethyl)-3-pyridyl]-5-[(2-hydroxy-1,1-dimethyl-ethyl)amino]-1H-1,6-naphthyridin-4-one], 500 to 2000 nM.
Consider `Cc1c(Oc2ncc(C(F)(F)F)c(C)c2-c2cc(=O)c3c(N4Cc5cn[nH]c5C4)nccc3[nH]2)ccc(F)c1F` [Compound 175, 2-[2-(3,4-difluoro-2-methyl-phenoxy)-4-methyl-5-(trifluoromethyl)-3-pyridyl]-5-(4,6-dihydro-1H-pyrrolo[3,4-c]pyrazol-5-yl)-1H-1,6-naphthyridin-4-one], for which the half-maximal inhibitory concentration (IC50) lay in the range of 500 to 2000 nM.
Take `Cc1c(Oc2ncc(C(F)(F)F)c(C)c2-c2cc(=O)c3c(N4CC(O)C4)nccc3[nH]2)ccc(F)c1F` [Compound 179, 2-[2-(3,4-difluoro-2-methyl-phenoxy)-4-methyl-5-(trifluoromethyl)-3-pyridyl]-5-(3-hydroxyazetidin-1-yl)-1H-1,6-naphthyridin-4-one]: the half-inhibitory concentration (IC50) was 500 to 2000 nM.
The value for `Cc1cc(-c2cc(=O)c3c(C)nccc3[nH]2)c(N2CCCC(F)(F)CC2)nc1C(F)(F)F` [Compound 193, 2-[2-(4,4-difluoroazepan-1-yl)-5-methyl-6-(trifluoromethyl)-3-pyridyl]-5-methyl-1H-1,6-naphthyridin-4-one] was not below 5000 nM; that for `NC(=O)c1nccc2[nH]c(-c3cc4ccccc4nc3N3CCC(F)(F)C3)cc(=O)c12` [Compound 281, 2-[2-(3,3-difluoropyrrolidin-1-yl)-3-quinolyl]-4-oxo-1H-1,6-naphthyridine-5-carboxamide] was 500 to 2000 nM.
As for `N#Cc1nccc2[nH]c(-c3cc4ccccc4nc3N3CCC(F)(F)C3)cc(=O)c12` [Compound 282, 2-[2-(3,3-difluoropyrrolidin-1-yl)-3-quinolyl]-4-oxo-1H-1,6-naphthyridine-5-carbonitrile], the IC50 lay in the range of 500 to 2000 nM.
The value for `CCN(c1nc2ccccc2cc1-c1cc(=O)c2c(C(N)=O)nccc2[nH]1)C1CCC1` [Compound 303, 2-[2-[cyclobutyl(ethyl)amino]-3-quinolyl]-4-oxo-1H-1,6-naphthyridine-5-carboxamide] was not below 5000 nM; that for `O=c1cc(-c2cc(C(F)(F)F)ncc2[C@H]2CC[C@H](C(F)(F)F)CC2)[nH]c2ccncc12` [Compound 305, 2-[2-(trifluoromethyl)-5-[4-(trifluoromethyl)cyclohexyl]-4-pyridyl]-1H-1,6-naphthyridin-4-one] was not below 5000 nM; that for `Cc1c(C(F)(F)F)cnc(Oc2ccc(F)c(F)c2CO)c1-c1cc(=O)c2c(C(N)=O)nccc2[nH]1` [Compound 346, 2-[2-[3,4-difluoro-2-(hydroxymethyl)phenoxy]-4-methyl-5-(trifluoromethyl)-3-pyridyl]-4-oxo-1H-1,6-naphthyridine-5-carboxamide] was 500 to 2000 nM.
